Counter-ions that a name gives are not always drawn.
Experiments:
[1] = system: serum protein; assay: Protein-binding ratio of UTs in rat serum; format: in vitro ADME, rats; conditions: ultrafiltration at 37 °C
[2] = target: T1, OAT3 (Homo sapiens, UniProt Q8TCC7); assay: Uptake of UTs in HEK293T-OAT3 cells; format: cell-based; conditions: 100 μM, 30 min, 37 °C; for uptake of HSA-bound UT in OAT3-overexpressing cells vs control cells: with HSA; for uptake of free UT in OAT3-overexpressing cells vs control cells: without HSA
T1 sequence (Q8TCC7 1-542): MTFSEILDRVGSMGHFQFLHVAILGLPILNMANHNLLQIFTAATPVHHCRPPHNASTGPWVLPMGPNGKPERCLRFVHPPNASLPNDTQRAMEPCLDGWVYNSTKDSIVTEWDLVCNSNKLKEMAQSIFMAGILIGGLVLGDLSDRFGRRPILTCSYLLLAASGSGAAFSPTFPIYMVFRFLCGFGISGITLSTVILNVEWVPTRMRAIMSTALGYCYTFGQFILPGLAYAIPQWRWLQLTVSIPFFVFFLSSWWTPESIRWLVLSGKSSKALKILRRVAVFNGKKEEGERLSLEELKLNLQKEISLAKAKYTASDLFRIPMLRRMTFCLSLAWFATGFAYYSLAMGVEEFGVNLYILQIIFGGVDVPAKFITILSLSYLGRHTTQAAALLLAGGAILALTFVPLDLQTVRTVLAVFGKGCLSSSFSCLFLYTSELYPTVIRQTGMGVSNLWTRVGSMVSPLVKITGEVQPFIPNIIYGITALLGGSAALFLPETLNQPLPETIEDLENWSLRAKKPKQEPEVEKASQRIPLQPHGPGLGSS

[3] = target: T2, OAT1 (Homo sapiens, UniProt Q4U2R8); assay: Uptake of UTs in HEK293T-OAT1 cells; format: cell-based; conditions: 100 μM, 30 min, 37 °C; for uptake of free UT in OAT1-overexpressing cells vs control cells: without HSA; for uptake of HSA-bound UT in OAT1-overexpressing cells vs control cells: with HSA
T2 sequence (Q4U2R8 1-563): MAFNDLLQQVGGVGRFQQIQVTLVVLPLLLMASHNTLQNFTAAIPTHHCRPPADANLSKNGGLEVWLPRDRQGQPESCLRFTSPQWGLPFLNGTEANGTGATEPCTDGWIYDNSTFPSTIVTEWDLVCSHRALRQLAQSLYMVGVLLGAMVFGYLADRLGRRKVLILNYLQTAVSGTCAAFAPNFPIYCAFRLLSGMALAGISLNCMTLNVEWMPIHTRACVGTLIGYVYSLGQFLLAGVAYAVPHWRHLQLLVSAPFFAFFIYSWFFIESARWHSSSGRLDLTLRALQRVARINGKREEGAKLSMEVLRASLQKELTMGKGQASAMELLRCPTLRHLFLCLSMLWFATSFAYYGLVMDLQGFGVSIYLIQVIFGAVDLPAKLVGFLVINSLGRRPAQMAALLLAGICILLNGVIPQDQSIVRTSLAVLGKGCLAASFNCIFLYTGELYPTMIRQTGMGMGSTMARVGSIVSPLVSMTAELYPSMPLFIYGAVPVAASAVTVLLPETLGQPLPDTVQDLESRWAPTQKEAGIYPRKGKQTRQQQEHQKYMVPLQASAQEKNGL

[4] = format: in vivo, rats; conditions: rats; for Renal clearance half-life (t1/2), Control: 2 mg/kg i.v., urine 0-12 h; for renal excretion with MK-571 vs control: MK-571 20 mg/kg; for renal excretion with PROB vs control: PROB 60 mg/kg

Row | Molecule | Protein-binding ratio, Normal rats in vivo (%) (n = 6) [1] | uptake of HSA-bound UT in OAT3-overexpressing cells vs control cells [2] | uptake of free UT in OAT3-overexpressing cells vs control cells [2] | uptake of free UT in OAT1-overexpressing cells vs control cells [3] | further results
1 | Cc1ccc(O[C@@H]2O[C@H](C(=O)O)[C@@H](O)[C@H](O)[C@H]2O)cc1 [p-cresol glucuronide] | < 70 | markedly increased | markedly increased |  | 
2 | CC(=O)Nc1ccn([C@@H]2O[C@H](CO)[C@@H](O)[C@H]2O)c(=O)n1 [N-acetylcytidine] |  |  | significantly increased | significantly increased | 
3 | CCc1ccc(OS(=O)(=O)[O-])cc1.[K+] [4-ethylphenyl sulfate] | > 90 | no significant change | substantially elevated | substantially elevated | uptake of HSA-bound UT in OAT1-overexpressing cells vs control cells [3]: no significant change
4 | d3-CMPF |  |  |  |  | Renal clearance half-life (t1/2), Control [4]: 1.9 ± 0.3 h; renal excretion with MK-571 vs control [4]: did not affect; renal excretion with PROB vs control [4]: did not affect
5 | Cc1ccc(OS(=O)(=O)O)cc1 [p-cresol sulfate] | > 90 |  | significantly increased | significantly increased | uptake of HSA-bound UT in OAT1-overexpressing cells vs control cells [3]: significantly increased
6 | O=C(O)[C@H]1O[C@@H](Oc2ccccc2)[C@H](O)[C@@H](O)[C@@H]1O [Phenyl-β-D-glucuronide, phenyl-β-D-glucuronide] | < 70 | significantly increased | significantly increased |  | 
7 | [2H]c1c([2H])c([2H])c2c(O)c([2H])c(C(=O)O)nc2c1O [d4-xanthurenic acid] |  |  |  |  | renal excretion with MK-571 vs control [4]: reduce; renal excretion with PROB vs control [4]: reduce
8 | Cn1cnc2c(ncn2[C@@H]2O[C@H](CO)[C@@H](O)[C@H]2O)c1=O [1-methyl-inosine] |  |  | significantly higher |  | 
9 | [2H]c1c([2H])c([2H])c2c(O)c([2H])c(C(=O)O)nc2c1[2H] [d5-kynurenic acid] |  |  |  |  | Renal clearance half-life (t1/2), Control [4]: 3.7 ± 0.7 h
10 | N[C@@H](Cc1ccc(O)c(O)c1)C(=O)O [3-(3,4-dihydroxyphenyl)-L-alanine] | < 70 |  |  |  | 
11 | OC[C@H]1O[C@@H](Oc2c[nH]c3ccccc23)[C@H](O)[C@@H](O)[C@@H]1O [3-indoxyl-β-D-glucopyranoside] | > 90 | markedly increased | markedly increased |  | 
12 | O=C(O)Cc1c[nH]c2ccccc12 [Indole-3-acetic acid, indole-3-acetic acid] |  |  |  | significantly increased | uptake of HSA-bound UT in OAT1-overexpressing cells vs control cells [3]: significantly increased
13 | NCCCC[C@H](NCC(=O)O)C(=O)O [N-(1-carboxymethyl)-L-lysine] | < 70 |  |  |  | 
14 | O=S(=O)(O)Oc1c[nH]c2ccccc12 [3-indoxyl sulfate] |  | no significant change | substantially elevated |  | 
15 | Nc1ccccc1C(=O)C[C@@H](N)C(=O)O [D-kynurenine] | > 90 |  |  | markedly increased | uptake of HSA-bound UT in OAT1-overexpressing cells vs control cells [3]: markedly increased

— publication PMC10657973 (Journal of Pharmaceutical Analysis, 2023)
